Laboratory results from patent US20210267205A1, “METHOD OF CONTROLLING WEEDS” (SUMITOMO CHEMICAL COMPANY, LIMITED, priority 2018, published 2021).

Legend:
Format in all cases: in vivo
[1] = tested on: Waterhemp having a Gly210 deletion mutation in PPO2; test: Herbicidal effect, soil spray the day after seeding, pot test (Example 1156); settings: 15 g per 10000 m^2; 150 L per 10000 m^2; 30 PSI; 10 days in greenhouse; scale of 0 to 100
Procedure: (§1) Waterhemp having a Gly210 deletion mutation in PPO2 was seeded on a plastic pot filled with a soil. On the next day, an aqueous diluted liquid of trifludimoxazin (prepared by diluting an emuslfiable concentrate of trifludimoxazin with water) was uniformly sprayed onto the pot through the nozzles given in Table 4 at the amount of the aqueous diluted liquid of 150 L per 10000 m^2 so that the application rate of trifludimoxazin might be 15 g per 10000 m^2. The spray pressure was 30 PSI and the spray height (distance between the nozzle outlet and the soil surface of the pot) was 60 cm. The air temperature was 17 degrees Celsius, the wind speed was 2.5 m/s, and the relative humidity was 65% at the timing of application. The sprayed pots were placed in a greenhouse for 10 days to grow waterhemp and then herbicidal effects were evaluated on a scale of 0 to 100.

[2] = tested on: Echinochloa crus-galli; test: Herbicidal effect, soil spray the day after seeding, pot test (Example 1154); settings: 150 L per 10000 m^2, 30 PSI, 10 days in greenhouse, scale of 0 to 100
Procedure: as §1, with “Echinochloa crus-galli was seeded” for “Waterhemp having a Gly210 deletion mutation in PPO2 was seeded”, “in Table 2 at the” for “in Table 4 at the”, “might be 30 or 15 g” for “might be 15 g”, “to grow Echinochloa crus-galli and then” for “to grow waterhemp and then”

[3] = tested on: Echinochloa crus-galli; test: Herbicidal effect, soil spray the day after seeding, pot test (Example 1153); settings: 100 L per 10000 m^2, 30 PSI, 10 days in greenhouse, scale of 0 to 100
Procedure: as §1, with “Echinochloa crus-galli was seeded” for “Waterhemp having a Gly210 deletion mutation in PPO2 was seeded”, “in Table 1 at the” for “in Table 4 at the”, “liquid of 100 L per” for “liquid of 150 L per”, “might be 20 or 10 g per” for “might be 15 g per”, “to grow Echinochloa crus-galli and then” for “to grow waterhemp and then”, “evaluated on scale of” for “evaluated on a scale of”

[4] = tested on: Waterhemp having a Gly210 deletion mutation in PPO2; test: Herbicidal effect, soil spray the day after seeding, pot test (Example 1155); settings: 10 g per 10000 m^2; 100 L per 10000 m^2; 30 PSI; 10 days in greenhouse; scale of 0 to 100
Procedure: as §1, with “PPO2,” for “PPO2”, “3” for “4”, “100” for “150”, “10” for “15”

[5] = tested on: Amaranthus palmeri, waterhemp and ragweeds having mutations in PPO2; test: Effect on weeds, foliar treatment 21 days after sowing (Example 3); settings: 10, 20, 40, 80, or 160 g/ha, 200 L/ha, drift-reducing nozzle TTI11004, examined 14 days after treatment
Description: Amaranthus palmeri having an Arg128Gly mutation in PPO2, Amaranthus palmeri having an Arg128Met mutation in PPO2, Amaranthus palmeri having a Gly210 deletion mutation in PPO2, Amaranthus palmeri having a Gly399A1a mutation in PPO2, waterhemp having a Gly210 deletion mutation in PP02, ragweeds having Arg128Leu in PP02, and a Roundup Ready 2 Xtend soybean are sown in a plastic pot. Then, the weeds and soybean are cultivated in a greenhouse and a compound X is applied to perform foliar treatment by using a drift-reducing nozzle (TTI11004 manufactured by Teejet Company) 21 days after sowing. The amount of the compound X to be applied is 10, 20, 40, 80, or 160 g/ha and the amount of spray dilution is 200 L/ha. Then, the weeds and soybean are further cultivated in a greenhouse to examine the effects on the weeds and phytotoxic effects on the soybean 14 days after treatment.

[6] = tested on: Amaranthus palmeri, waterhemp and ragweeds having mutations in PPO2; test: Effect on weeds, soil surface application on day of sowing weeds and soybean (Example 2); settings: 10, 20, 40, 80, or 160 g/ha, 200 L/ha, drift-reducing nozzle TTI11004, examined after 21 days
Description: (§2) Amaranthus palmeri having an Arg128Gly mutation in PPO2, Amaranthus palmeri having an Arg128Met mutation in PPO2, Amaranthus palmeri having a Gly210 deletion mutation in PPO2, Amaranthus palmeri having a Gly399Ala mutation in PPO2, waterhemp having a Gly210 deletion mutation in PP02, ragweeds having Arg128Leu in PP02, and a Roundup Ready 2 Xtend soybean are sown in a plastic pot. On the same day, a compound X is applied to the surface of soil by using a drift-reducing nozzle (TTI11004 manufactured by Teejet Company). The amount of the compound X to be applied is 10, 20, 40, 80, or 160 g/ha and the amount of spray dilution is 200 L/ha. Then, the weeds and soybean are cultivated in a greenhouse to examine the effects on the weeds and phytotoxic effects on the soybean after 21 days.

[7] = tested on: Amaranthus palmeri, waterhemp and ragweeds having mutations in PPO2; test: Effect on weeds, soil surface application on day of weed sowing, soybean sown after 7 days (Example 1); settings: 10, 20, 40, 80, or 160 g/ha, 200 L/ha, drift-reducing nozzle TTI11004, examined after 14 days
Description: as §2, with “in PPO2, and” for “in PP02,”, “in PPO2” for “in PP02, and a Roundup Ready 2 Xtend soybean”, “Then, these” for “Then, the”, “weeds” for “weeds and soybean”, “greenhouse and Roundup Ready 2 Xtend soybean seeds are sown after 7 days,” for “greenhouse”, “after 14” for “after 21”

C#CCN1C(=O)C(F)(F)Oc2cc(F)c(-n3c(=O)n(C)c(=S)n(C)c3=O)cc21 [Trifludimoxazin, trifludimoxazin] was tested, and the “Herbicidal effect on Waterhemp having a Gly210 deletion mutation in PPO2, Air induction nozzle (TTI11004)” value [1] was 95, the “Herbicidal effect on Waterhemp having a Gly210 deletion mutation in PPO2, Standard nozzle (Teejet11004)” value [1] was 60 and the “Herbicidal effect on Echinochloa crus-galli, Air induction nozzle (TTI11004)” value ([2]; 15 g per 10000 m^2) was 70. The “Herbicidal effect on Echinochloa crus-galli, Standard nozzle (Teejet11004)” value ([2]; 15 g per 10000 m^2) was 30, the “Herbicidal effect on Echinochloa crus-galli, Air induction nozzle (TTI11004)” value ([2]; 30 g per 10000 m^2) was 90 and the “Herbicidal effect on Echinochloa crus-galli, Standard nozzle (Teejet11004)” value ([2]; 30 g per 10000 m^2) was 40. The “Herbicidal effect on Echinochloa crus-galli, Air induction nozzle (TTI11002)” value ([3]; 10 g per 10000 m^2) was 60, the “Herbicidal effect on Echinochloa crus-galli, Standard nozzle (Teejet11002)” value ([3]; 10 g per 10000 m^2) was 20 and the “Herbicidal effect on Echinochloa crus-galli, Air induction nozzle (TTI11002)” value ([3]; 20 g per 10000 m^2) was 80. For the same compound, the “Herbicidal effect on Echinochloa crus-galli, Standard nozzle (Teejet11002)” value ([3]; 20 g per 10000 m^2) was 30, the “Herbicidal effect on Waterhemp having a Gly210 deletion mutation in PPO2, Air induction nozzle (TTI11002)” value [4] was 90 and the “Herbicidal effect on Waterhemp having a Gly210 deletion mutation in PPO2, Pre-orifice nozzle (DG11002)” value [4] was 90. The “Herbicidal effect on Waterhemp having a Gly210 deletion mutation in PPO2, Standard nozzle (Teejet11002)” value [4] was 50.
CCOC(=O)COc1ncccc1Oc1cc(-n2c(=O)cc(C(F)(F)F)n(C)c2=O)c(F)cc1Cl [compound X, Ethyl [3-[2-chloro-4-fluoro-5-(1-methyl-6-trifluoromethyl-2,4-dioxo-1,2,3,4-tetrahydropyrimidine-3-yl)phenoxy]-2-pyridyloxy]acetate] was tested, and the “effects on the weeds” value [5] was “valuable effect”, the “effects on the weeds” value [6] was “valuable effect” and the “effects on the weeds” value [7] was “valuable effect”.
